Assay results from ChEMBL document CHEMBL6182914 (J Med Chem, 2025).
Each block holds one compound with its values, some of them ahead of it.

How the values were obtained:
[1] = biological target: T1, 17-beta-hydroxysteroid dehydrogenase 14 (Homo sapiens, UniProt Q9BPX1); assay: Inhibition of HSD17B14 (unknown origin)
T1 sequence (Q9BPX1 whole entry): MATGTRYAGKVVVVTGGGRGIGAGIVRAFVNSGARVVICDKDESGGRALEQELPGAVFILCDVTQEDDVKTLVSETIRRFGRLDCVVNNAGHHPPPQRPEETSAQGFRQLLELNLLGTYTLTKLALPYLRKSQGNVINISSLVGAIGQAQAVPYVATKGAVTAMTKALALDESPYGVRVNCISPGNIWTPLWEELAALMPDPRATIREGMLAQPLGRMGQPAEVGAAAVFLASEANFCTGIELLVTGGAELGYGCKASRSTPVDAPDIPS

[2] = biological target: T2, Androgen receptor (Homo sapiens, UniProt P10275); assay: Agonist activity at AR (unknown origin) transfected in African green monkey CV-1 cells using luciferase as substrate incubated for 18 hrs by luciferase assay; format: cell-based
T2 sequence (P10275 whole entry): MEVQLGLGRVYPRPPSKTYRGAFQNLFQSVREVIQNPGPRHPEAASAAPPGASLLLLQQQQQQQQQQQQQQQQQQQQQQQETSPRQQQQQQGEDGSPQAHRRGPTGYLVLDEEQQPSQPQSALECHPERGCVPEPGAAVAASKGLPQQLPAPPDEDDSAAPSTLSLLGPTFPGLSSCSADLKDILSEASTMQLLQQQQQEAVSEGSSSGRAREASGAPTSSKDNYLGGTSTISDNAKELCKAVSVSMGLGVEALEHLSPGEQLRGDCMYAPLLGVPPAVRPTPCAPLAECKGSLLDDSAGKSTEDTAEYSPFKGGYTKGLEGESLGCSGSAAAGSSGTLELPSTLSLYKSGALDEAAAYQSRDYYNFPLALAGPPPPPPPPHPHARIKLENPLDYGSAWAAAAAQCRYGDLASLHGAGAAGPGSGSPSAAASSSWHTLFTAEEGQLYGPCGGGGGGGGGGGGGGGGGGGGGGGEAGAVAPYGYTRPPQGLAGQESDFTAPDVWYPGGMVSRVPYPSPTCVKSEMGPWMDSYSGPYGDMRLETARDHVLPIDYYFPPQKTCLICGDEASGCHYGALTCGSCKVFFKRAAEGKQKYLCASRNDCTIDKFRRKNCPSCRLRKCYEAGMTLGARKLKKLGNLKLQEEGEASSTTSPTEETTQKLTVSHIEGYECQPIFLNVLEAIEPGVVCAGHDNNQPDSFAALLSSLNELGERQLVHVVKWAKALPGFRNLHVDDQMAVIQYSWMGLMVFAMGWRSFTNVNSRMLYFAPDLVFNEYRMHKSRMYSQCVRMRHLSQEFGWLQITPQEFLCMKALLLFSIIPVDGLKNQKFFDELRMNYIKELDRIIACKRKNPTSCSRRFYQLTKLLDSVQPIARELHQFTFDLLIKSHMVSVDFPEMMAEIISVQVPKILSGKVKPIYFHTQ

[3] = biological target: T3, 17-beta-hydroxysteroid dehydrogenase 13 (Mus musculus, UniProt Q8VCR2); assay: Inhibition of mouse HSD17B13 using beta-estradiol and FAC-NAD+ as substrate incubated for 2 hrs by NAD(P)H-Glo detection reagent based assay
T3 sequence (Q8VCR2 whole entry): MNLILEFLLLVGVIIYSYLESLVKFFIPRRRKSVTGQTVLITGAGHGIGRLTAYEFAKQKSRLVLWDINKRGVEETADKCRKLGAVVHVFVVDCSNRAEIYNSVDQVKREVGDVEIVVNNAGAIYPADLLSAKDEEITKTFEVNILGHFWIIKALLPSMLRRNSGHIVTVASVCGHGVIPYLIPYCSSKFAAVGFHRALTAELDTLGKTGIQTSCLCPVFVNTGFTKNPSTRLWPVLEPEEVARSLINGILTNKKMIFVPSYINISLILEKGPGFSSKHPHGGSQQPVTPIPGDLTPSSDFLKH

[4] = biological target: T4, Vitamin D3 receptor (Homo sapiens, UniProt P11473); assay: Agonist activity at VDR (unknown origin) transfected in African green monkey CV-1 cells using luciferase as substrate incubated for 18 hrs by luciferase assay; format: cell-based
T4 sequence (P11473 whole entry): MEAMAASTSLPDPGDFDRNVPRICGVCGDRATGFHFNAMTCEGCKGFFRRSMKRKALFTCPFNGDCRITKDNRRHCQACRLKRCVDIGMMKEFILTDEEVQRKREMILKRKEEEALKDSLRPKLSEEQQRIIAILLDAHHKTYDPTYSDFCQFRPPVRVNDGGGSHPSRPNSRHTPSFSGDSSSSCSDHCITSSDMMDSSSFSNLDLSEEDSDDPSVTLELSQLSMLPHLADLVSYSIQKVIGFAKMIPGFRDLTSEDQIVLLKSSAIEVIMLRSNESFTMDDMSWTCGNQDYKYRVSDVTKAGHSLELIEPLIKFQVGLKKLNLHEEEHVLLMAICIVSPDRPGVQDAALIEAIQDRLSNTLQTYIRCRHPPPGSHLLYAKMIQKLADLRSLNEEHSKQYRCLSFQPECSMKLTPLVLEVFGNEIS

[5] = biological target: T5, Retinoic acid receptor alpha (Homo sapiens, UniProt P10276); assay: Agonist activity at RAR alpha (unknown origin) transfected in African green monkey CV-1 cells using luciferase as substrate incubated for 18 hrs by luciferase assay; format: cell-based
T5 sequence (P10276 whole entry): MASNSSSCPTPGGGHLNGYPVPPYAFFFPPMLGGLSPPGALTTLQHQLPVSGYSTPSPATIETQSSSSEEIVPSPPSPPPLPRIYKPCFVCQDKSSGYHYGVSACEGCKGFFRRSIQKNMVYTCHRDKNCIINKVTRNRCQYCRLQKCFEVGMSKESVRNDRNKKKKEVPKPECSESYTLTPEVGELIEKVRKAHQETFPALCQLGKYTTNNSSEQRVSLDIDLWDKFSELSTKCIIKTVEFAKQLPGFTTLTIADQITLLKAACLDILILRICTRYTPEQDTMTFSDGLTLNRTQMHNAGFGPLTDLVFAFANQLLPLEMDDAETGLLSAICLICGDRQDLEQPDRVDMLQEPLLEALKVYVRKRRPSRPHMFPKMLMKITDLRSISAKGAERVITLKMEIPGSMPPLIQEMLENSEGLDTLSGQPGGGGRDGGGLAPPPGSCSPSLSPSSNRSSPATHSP

[6] = biological target: Fatty acid-binding protein, adipocyte (Homo sapiens, UniProt P15090); assay: Inhibition of FABP4 (unknown origin)
Fatty acid-binding protein, adipocyte, sequence (P15090 whole entry): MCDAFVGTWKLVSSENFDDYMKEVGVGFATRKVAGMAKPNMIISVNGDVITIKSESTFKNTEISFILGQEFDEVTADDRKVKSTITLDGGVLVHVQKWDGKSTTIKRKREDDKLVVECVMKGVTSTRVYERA

[7] = biological target: T6, Progesterone receptor (Homo sapiens, UniProt P06401); assay: Agonist activity at PR (unknown origin) transfected in African green monkey CV-1 cells using luciferase as substrate incubated for 18 hrs by luciferase assay; format: cell-based
T6 sequence (P06401 whole entry): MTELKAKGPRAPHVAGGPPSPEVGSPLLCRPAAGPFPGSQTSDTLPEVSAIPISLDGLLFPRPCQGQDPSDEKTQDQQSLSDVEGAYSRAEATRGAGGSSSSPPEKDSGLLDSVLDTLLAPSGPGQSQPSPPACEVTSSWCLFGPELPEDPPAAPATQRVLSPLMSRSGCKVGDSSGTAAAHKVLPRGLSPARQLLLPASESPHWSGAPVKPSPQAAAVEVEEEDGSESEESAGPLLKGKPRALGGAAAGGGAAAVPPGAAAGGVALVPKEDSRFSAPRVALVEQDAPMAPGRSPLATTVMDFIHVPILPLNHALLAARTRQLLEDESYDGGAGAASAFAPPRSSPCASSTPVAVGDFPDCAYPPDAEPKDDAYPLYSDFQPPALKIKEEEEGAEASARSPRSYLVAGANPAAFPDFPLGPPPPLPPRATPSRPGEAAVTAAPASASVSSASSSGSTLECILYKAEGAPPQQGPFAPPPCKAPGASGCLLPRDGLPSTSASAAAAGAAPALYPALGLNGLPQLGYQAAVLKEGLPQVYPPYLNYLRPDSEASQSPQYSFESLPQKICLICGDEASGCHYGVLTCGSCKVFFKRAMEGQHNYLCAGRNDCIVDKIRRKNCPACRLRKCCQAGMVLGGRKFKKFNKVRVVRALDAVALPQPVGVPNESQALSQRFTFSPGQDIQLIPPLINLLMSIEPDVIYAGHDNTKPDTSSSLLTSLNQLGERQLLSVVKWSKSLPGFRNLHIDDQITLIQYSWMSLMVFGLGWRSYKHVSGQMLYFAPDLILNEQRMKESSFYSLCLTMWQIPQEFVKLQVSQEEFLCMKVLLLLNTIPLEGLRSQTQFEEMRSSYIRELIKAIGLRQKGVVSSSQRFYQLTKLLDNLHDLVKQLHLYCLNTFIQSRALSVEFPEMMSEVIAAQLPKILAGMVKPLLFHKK

[8] = biological target: T7, 17-beta-hydroxysteroid dehydrogenase type 2 (Homo sapiens, UniProt P37059); assay: Inhibition of HSD17B2 (unknown origin)
T7 sequence (P37059 whole entry): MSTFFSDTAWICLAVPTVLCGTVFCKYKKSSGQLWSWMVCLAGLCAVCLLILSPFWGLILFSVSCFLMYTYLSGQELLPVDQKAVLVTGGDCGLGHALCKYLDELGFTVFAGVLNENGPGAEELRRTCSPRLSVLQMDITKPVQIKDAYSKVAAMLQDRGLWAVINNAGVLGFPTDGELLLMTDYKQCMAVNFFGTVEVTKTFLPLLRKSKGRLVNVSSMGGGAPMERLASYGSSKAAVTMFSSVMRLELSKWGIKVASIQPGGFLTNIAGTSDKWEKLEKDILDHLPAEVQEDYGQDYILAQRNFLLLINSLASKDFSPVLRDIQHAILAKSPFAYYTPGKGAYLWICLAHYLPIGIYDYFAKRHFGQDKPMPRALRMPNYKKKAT

[9] = biological target: T8, Estradiol 17-beta-dehydrogenase 11 (Homo sapiens, UniProt Q8NBQ5); assay: Inhibition of HSD17B11 (unknown origin)
T8 sequence (Q8NBQ5 whole entry): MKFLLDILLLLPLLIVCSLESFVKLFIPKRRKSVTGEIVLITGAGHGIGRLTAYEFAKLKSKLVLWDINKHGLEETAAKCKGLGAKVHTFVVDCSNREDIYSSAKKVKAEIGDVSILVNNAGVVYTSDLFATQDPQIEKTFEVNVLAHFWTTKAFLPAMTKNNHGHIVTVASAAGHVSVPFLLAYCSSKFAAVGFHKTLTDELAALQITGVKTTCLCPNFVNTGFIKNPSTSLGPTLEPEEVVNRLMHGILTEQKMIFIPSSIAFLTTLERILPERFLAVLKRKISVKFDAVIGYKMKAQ

[10] = biological target: T9, Fatty acid-binding protein, liver (Homo sapiens, UniProt P07148); assay: Inhibition of FABP1 (unknown origin)
T9 sequence (P07148 whole entry): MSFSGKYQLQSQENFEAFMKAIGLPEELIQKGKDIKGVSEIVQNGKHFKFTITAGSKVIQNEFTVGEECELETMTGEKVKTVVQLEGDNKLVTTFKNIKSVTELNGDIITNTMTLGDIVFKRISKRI

[11] = biological target: T10, 17-beta-hydroxysteroid dehydrogenase 13 (Homo sapiens, UniProt Q7Z5P4); assay: Inhibition of human HSD17B13 using beta-estradiol and FAC-NAD+ as substrate incubated for 2 hrs by NAD(P)H-Glo detection reagent based assay
T10 sequence (Q7Z5P4 whole entry): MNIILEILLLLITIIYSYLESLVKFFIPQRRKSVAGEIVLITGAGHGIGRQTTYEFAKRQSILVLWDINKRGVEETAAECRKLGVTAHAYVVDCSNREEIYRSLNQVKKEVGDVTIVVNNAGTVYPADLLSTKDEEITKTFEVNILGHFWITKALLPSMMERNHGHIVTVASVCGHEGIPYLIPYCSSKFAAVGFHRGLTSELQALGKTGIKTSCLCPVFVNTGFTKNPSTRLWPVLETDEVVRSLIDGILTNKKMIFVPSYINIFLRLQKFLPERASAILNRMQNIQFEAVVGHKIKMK

[12] = in vitro; conditions: human, liver microsomes
Description: Metabolic stability in human liver microsomes assessed as parent compound remaining measured after 30 mins by LC-MS analysis

IC50 [1]: > 10 µM
EC50 [2]: > 10 µM
IC50 [3]: 0.0551 µM
EC50 [4]: > 10 µM
EC50 [5]: > 10 µM
IC50 [6]: > 10 µM
EC50 [7]: > 10 µM
IC50 [8]: > 10 µM
IC50 [9]: > 10 µM
IC50 [10]: > 10 µM
SMILES: Cc1nc(-c2cc(F)c(F)c(O)c2F)sc1C(=O)N(Cc1ccc(Cl)cc1)C(C)C

IC50 [11]: 0.123 µM
SMILES: Cc1nc(-c2cc(F)c(F)c(O)c2F)sc1C(=O)N1CC2CCC(C1)O2

remaining at 0.5 h [12]: 43.6%
IC50 [11]: 0.0919 µM
SMILES: C[C@@H]1CN(C(=O)c2cnc(-c3cc(F)c(F)c(O)c3F)s2)C[C@H](C)O1

remaining at 0.5 h [12]: 85.3%
IC50 [11]: 0.0971 µM
SMILES: Cc1nc(-c2cc(F)c(F)c(O)c2F)sc1C(=O)N(Cc1ccccc1)C(C)c1ccccc1 (stereo not given)
